Assay results: publication PMC3169616, “Unique Residues Involved in Activation of the Multitasking Protease/Chaperone HtrA from Chlamydia trachomatis” (PLoS ONE, 2011)

Experiments:
CtHtrA [1] = target: T1, CtHtrA (Chlamydia trachomatis serovar D, UniProt P18584); assay: Activation of CtHtrA cleavage of pNA peptides by added activator peptide; type: biochemical; settings: data not shown
T1 construct: His-tag; made in house; host or cells: E. coli BL21 (DE3), plasmid pETHtrA
T1 sequence (P18584 17-497): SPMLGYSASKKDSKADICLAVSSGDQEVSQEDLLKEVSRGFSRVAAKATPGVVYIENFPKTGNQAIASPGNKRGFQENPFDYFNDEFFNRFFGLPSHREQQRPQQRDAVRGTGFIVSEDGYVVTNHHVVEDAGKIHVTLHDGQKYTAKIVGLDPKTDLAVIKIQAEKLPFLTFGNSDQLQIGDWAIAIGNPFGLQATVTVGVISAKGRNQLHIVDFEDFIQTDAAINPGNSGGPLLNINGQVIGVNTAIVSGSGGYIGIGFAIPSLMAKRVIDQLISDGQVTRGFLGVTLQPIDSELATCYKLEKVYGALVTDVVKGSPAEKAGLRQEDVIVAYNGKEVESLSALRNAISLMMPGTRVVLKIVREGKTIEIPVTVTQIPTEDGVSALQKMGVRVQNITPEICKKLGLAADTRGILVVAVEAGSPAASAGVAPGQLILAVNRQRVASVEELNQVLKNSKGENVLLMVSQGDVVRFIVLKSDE
Description: (§1) To determine if the addition of a second peptide to the protease assays could activate or increase CtHtrA proteolysis, two activator peptides were tested in the CtHtrA cleavage of the model ß-casein peptide substrate Bcas1. The first was based on the ß-casein C-terminal sequence (Act1: NH2-VLGPVRGPFPIIV-OH) and the second on insulin b chain C-terminal sequence (Act2: NH2-CGELGFFYTP-OH).
One explanation for the observation of a lack of activation for some substrates could be that these substrates act as both activators and substrates by binding to both the active and allosteric sites of CtHtrA. In particular, the pNA peptides were not activated, which could imply that the pNA moiety itself may bind at the activation site. […]
The purified recombinant protein was examined by Coomassie stained polyacrylamide gels and activity was checked using ß-casein cleavage assays prior to use in peptide assays. […] Protease assays using pNA labelled peptides were conducted using the xMARK Microplate spectrophotometer (Bio-Rad) at 405 nm, incubated at 37°C, with a reading taken every 10 s for 30 min. The maximum slope over a minimum of 8 readings was used for the data analysis. […] The assays were excited at 340 nm and emission was detected at 405 nm with a gain of 1000, the assays were monitored every 20 s or at the minimum cycle time for up to 40 min. […]

CtHtrA [2] = target: T1, CtHtrA; assay: Activation of CtHtrA cleavage of Bcas1 substrate by added activator; type: biochemical; settings: substrate Bcas1 (MCA-ENLHLPLPIIF-DNP), fluorimetric, 37°C
Description: as §1
Finally, in order to determine if the 24-mer (highest amount with MOMP protein, or Act1), or 12-mer, or both, corresponds to enhanced protease activity, the incubations of CtHtrA and these potential in vivo activators were used for protease assays with the Bcas1 substrate (Fig. 6). […] The presence of the majority of CtHtrA as higher order oligomers correlated with an increased rate of proteolysis for CtHtrA, particularly when these oligomers were predominately 24-mers.
The purified recombinant protein was examined by Coomassie stained polyacrylamide gels and activity was checked using ß-casein cleavage assays prior to use in peptide assays. Briefly, this involved incubating 2 µg of the protease with 10 µg of ß-casein in 50 mM Tris pH 7.0, 20 mM MgCl2 for 2 h prior to examining the assays by SDS PAGE (ß-casein and protease only controls were always conducted). Protease assays using peptides were conducted using custom synthesised peptides (Mimotopes). […] Protease assays using pNA labelled peptides were conducted using the xMARK Microplate spectrophotometer (Bio-Rad) at 405 nm, incubated at 37°C, with a reading taken every 10 s for 30 min. The maximum slope over a minimum of 8 readings was used for the data analysis. […] The assays were excited at 340 nm and emission was detected at 405 nm with a gain of 1000, the assays were monitored every 20 s or at the minimum cycle time for up to 40 min. […] The assay results shown for the fluorescent compounds have been normalised for the amount of fluorescent emission detected using a standard curve of known concentrations of the MCA fluorophore under the identical assay conditions. […]

QNIPF
effect of activator peptide on CtHtrA cleavage of pNA peptides (CtHtrA [1]): did activate the cleavage of some of the pNA peptides tested | effect of activator on rate of CtHtrA proteolysis of Bcas1 (CtHtrA [2]): did not activate CtHtrA cleavage of Bcas1
